From patent publication US20090176776A1, “SMALL MOLECULE INHIBITORS OF HIV-1 CAPSID ASSEMBLY” (UNIVERSITY OF ALABAMA AT BIRMINGHAM, priority 2005, published 2009)

How the values were obtained:
[1] = biological target: T1, recombinant HIV-1 capsid protein (CA) (Human immunodeficiency virus type 1 group M subtype B, UniProt P12493); assay: Turbidity based HIV-1 capsid assembly assay; assay type: biochemical; conditions: initial assembly rate by turbidity; twofold dilutions over a 128 fold range; 30 μM CA, 2.25 M NaCl
T1 construct: recombinant HIV-1 capsid protein (CA); made in house
Procedure: The kinetics can be followed by monitoring the increase of turbidity using a spectrophotometer. The IC50 of the chemical compound tested is determined by titration. As the C-domain inhibits capsid assembly by forming CA-C-domain heterodimers, the effect of added C-terminal domain on the rate of assembly was evaluated by plotting the rate of assembly versus C-terminal domain concentration.
Soluble HIV-1 capsid protein can be triggered to assemble into tubes similar in diameter and morphology to intact cores by dilution into high iconic strength buffer. The kinetics of assembly can be followed by monitoring the increase in turbidity using a spectrophotometer (Lanham et al., J. Virol., 76:6900, 2002). This assembly assay was adapted to a 96-well, microplate format to allow for medium-throughput screening of compounds by measuring turbidity in a Nepeloskan Ascent plate reader (Thermo Electron Corp., UK). A DIVERSet™ library of 10,000 low molecular weight, “drug-like” compounds was purchased from ChemBridge Corp. (San Diego, Calif.). This library was selected for its potential bioavailability and application based on a pharmacophore diversity analysis. The average molecular weight of the compounds is 347 g/mol, the range being 200-596 g/mol. The compounds came plated in 96-well plates and solubilized in DMSO at 5 mgs/mL.
Turbidity based assay. A 1.5 μL aliquot of compound was diluted 90-fold into 50 mM Na2HPO4, […] buffer, pH 8 in an optically clear 96-well plate. The plate containing compounds and salt was read to check for compound solubility and to serve as a background reading for the assay. To initiate the assembly reaction, 15 μL of […] stock (in 50 mM Na2HPO4 pH 8) of recombinant HIV-1 capsid protein (CA), purified as described (Lanman et al., J. Virol., 76:6900, 2002), was added to each well of the 96-well plate using a multi-channel pipettor. […] Furthermore, the halftime of the assembly reaction is ˜5 minutes so reading the plate in thirds prevented loss of initial rate data. Therefore, CA was added to the first 4 lanes, the reactions followed for ten minutes, reading was paused, CA was then added to the next four lanes and the process repeated. Instrument settings are as follows: PMT gain of 500 V, lamp at 10V, and integration time of 60 ms. The data were exported to a custom designed Excel spreadsheet that allowed simultaneous plotting of kinetic curves.
Recombinant CA protein was purified as previously described and stored at 300 μM at −80° C. A turbidity based assembly assay, described above, was adapted to a 96-well, microplate format to allow for medium-throughput screening of compounds in a Nepheloskan Ascent plate reader (Thermo Electron Corp., UK). A 1.5 μL aliquot of compound or DMSO was diluted 90-fold into 50 mM Na2HPO4, 2.25 M NaCl buffer, pH 8 in an optically clear 96-well plate. To initiate the assembly reaction, 15 μL of the 300 μM stock (in 50 mM Na2HPO4 pH 8) of recombinant HIV-1 capsid protein (CA), was added to each well of the 96-well plate using a multi-channel pipettor.

[2] = MTS score (Table 1; method not described); assay type: cell-based; conditions: for MTS AVG 4 (No Effect): average of the MTS scores at 10, 30 and 100 μM; for MTS 10 μM: score at nominal 10 μM; for MTS 10 μM / MTS 30 μM / MTS 100 μM: 4 = No Effect; for MTS 30 μM: score at nominal 30 μM; for MTS 100 μM: score at nominal 100 μM
[3] = system: HIV-1YU2; assay: Anti-HIV assay (multiple round), luciferase expression in Luc-M7 cells; assay type: cell-based; conditions: Luc-M7 cells infected with HIV-1YU2, 6 days, Bright-Glo
Procedure: (§1) Anti-HIV Assays (Multiple Round). The inhibitory effects of the tested compounds on HIV-1YU2 replication were determined by the level of luciferase expression after 6 days of infection using Bright-Glo assay (Promega). An amount of 1.5×10^4 Luc-M7 (a gift from Ned Landau) cells per ml were infected with HIV-1YU2 at a multiplicity of infection (MOI) of 3. The HIV-1 infected ([…] compound) or mock-infected (0-300 μM compound) Luc-M7 cells were placed in 96-well culture plates (100 μl/well) with 100 μl of various concentrations of the compounds with 20 μg/ml DEAE Dextran in triplicate and incubated at 37° C. under 5% CO2 at 100% humidity. After 6 days, cell viability was quantified by Cell-Titer Glo assay (Promega). […] On day 5 cell viability was determined in the mock-infected cells. FIGS. 12-18 show the anti-HIV assays for the examples of chemical compounds used according to the invention. After in-vitro assay, the chemical compounds in FIGS. 12-18 were selected for screening for cell viability and toxicity. Jurkat cells assay was used as screening assay. […] After five days, GFP expression was read. Cell viability was monitored with Alamar Blue assay. Luc M7 assay was designed to measure inhibitory activity of the chemical compounds to viral replication. After infection of cells with YU2 virus, plate cells in 96-well plate in the presence of six concentration of compounds in DMSO. At day 6, the number of cells in wells were read with Cell Titer Glo kit or by counting the number of cells infected with Bright Glo kit. 293T cells assay was designed to determine the toxicity. 293T cells were transfected with NL43. After four hours, transfected cells were plated in 96-well plate in DMSO and 2 μM Indinavir. 72 hours later, viral supernatant was collected and plated on J[…].

[4] = system: Luc-M7 cells; assay: Cell viability of Luc-M7 cells (Cell-Titer Glo); assay type: cell-based; set-up: unit: μM; conditions: mock-infected Luc-M7 cells, 6 days
Procedure: as §1

| SMILES | IC50 [1] | MTS AVG 4 (No Effect) [2] | MTS 10 μM [2] | MTS 30 μM [2] | MTS 100 μM [2] | IC50 [3] | TC50 [4] |
| --- | --- | --- | --- | --- | --- | --- | --- |
| CC(=NNC(=O)C(O)c1ccccc1)c1ccc2c(c1)CCCC2 (stereo not drawn) [Compound 6] | 9 µM | 3.000 | 4 | 3 | 2 | 15.4 µM | 36.8 |
| CC(C)(C)c1ccc(OCC(=O)NN=Cc2ccc(O)c([N+](=O)[O-])c2)cc1 [Compound 38] | 35 µM | 3.333 | 4 | 3 | 3 |  |  |
| O=C(NN=Cc1cc(Cl)cc([N+](=O)[O-])c1O)c1ccc2c(c1)OCO2 [Compound 37] |  | 2.000 | 4 | 1 | 1 |  |  |
| COc1c(O)ccc(C=NNC(=O)COc2cccc(C)c2)c1[N+](=O)[O-] [Compound 39] | 28 µM | 2.333 | 4 | 2 | 1 |  |  |
| Cc1ccc(OCC(=O)NN=Cc2ccncc2)cc1 [Compound 56] | 40 µM | 3.333 | 4 | 3 | 3 |  |  |
| O=C(NN=Cc1c(Br)cc(Br)c(O)c1Br)c1ccccc1[N+](=O)[O-] [Compound 23] | 12 µM | 3.667 | 4 | 4 | 3 |  |  |
| O=C(O)c1ccc2c(c1)C1C=CCC1C(c1ccc([N+](=O)[O-])cc1)N2 (stereo not drawn) [Compound 41] | 18 µM | 3.667 | 4 | 4 | 3 | 2.1 µM | 65.8 |
| Cc1ccc(C(C)C)c(OCC(=O)NN=Cc2ccc(C(=O)O)cc2)c1 [Compound 65] | 14 µM | 3.667 | 4 | 4 | 3 |  |  |
| COc1ccc(OCC(=O)NN=Cc2cc(O)c(O)c(Br)c2)c(Br)c1 [Compound 71] | 24 µM | 2.333 | 4 | 2 | 1 |  |  |
| O=C(O)c1ccc2c(c1)C1C=CCC1C(c1cccc([N+](=O)[O-])c1)N2 (stereo not drawn) [Compound 59] | 22 µM | 4.000 | 4 | 4 | 4 | 4.5 µM | 84.1 |
| CCOC(=O)c1c(N2C(=O)C=CC2=O)sc2c1CCCC2 [Compound 8] | 4 µM | 3.667 | 4 | 4 | 3 | 13.3 µM | 27.7 |
| Cc1cc(F)ccc1NCc1ccccn1 [Compound 16] | 95 µM | 3.000 | 4 | 4 | 1 | 17.8 µM | 66.5 |
| CC(C)(C)c1ccc(OCCN2CCOCC2)cc1 [Compound 60] | 75 µM | 3.333 | 4 | 4 | 2 | 6.98 µM | 125.3 |
| Nc1nc(-c2ccccc2Cl)cs1 [Compound 15] | 60 µM | 3.000 | 4 | 3 | 2 | 19.8 µM | 58.9 |
| Cc1ccc(OCC(=O)NN=Cc2c(Br)cc(Br)c(O)c2Br)cc1 [Compound 3] | 7 µM | 3.667 | 4 | 3 | 4 |  |  |
| O=C(COc1ccc2ccccc2c1)NN=Cc1cc(O)c(O)c(Br)c1 [Compound 53] | 33 µM | 2.000 | 4 | 1 | 1 |  |  |
| Cc1ccc(NCC(=O)NN=Cc2c(Br)cc(Br)c(O)c2Br)cc1 [Compound 17] | 11 µM | 2.333 | 4 | 1 | 2 |  |  |
| O=C1Nc2c(Br)cc(Br)cc2C1=NNC(=O)C(O)c1ccccc1 (stereo not drawn) [Compound 50] | 15 µM | 2.333 | 4 | 2 | 1 |  |  |
| Oc1ccc(C=NNc2cc(N3CCOCC3)nc(N3CCOCC3)n2)c(O)c1 [Compound 9] | 7 µM | 2.000 | 4 | 1 | 1 |  |  |
